Experimental data taken from PubChem BioAssay (NCI).
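These data come from cells grown in 96-well plates and exposed to compound for 48 hours at five concentrations. TGI marks complete inhibition of growth.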

Legend:
Assay in all cases: NCI tumour cell line growth inhibition, 48 h
SK-MEL-2 melanoma = test system: SK-MEL-2 melanoma
OVCAR-4 ovarian = test system: OVCAR-4 ovarian
NCI-H226 lung = test system: NCI-H226 lung
COLO 205 colon = test system: COLO 205 colon
A549 NSCLC = test system: A549 NSCLC
SK-OV-3 ovarian = test system: SK-OV-3 ovarian
DLD-1 colon = test system: DLD-1 colon
HOP-92 NSCLC = test system: HOP-92 NSCLC
A498 renal = test system: A498 renal
HCT-15 colon = test system: HCT-15 colon
NCI-H522 lung = test system: NCI-H522 lung
HCT-116 colon = test system: HCT-116 colon
786-0 renal = test system: 786-0 renal
OVCAR-5 ovarian = test system: OVCAR-5 ovarian
SF-295 CNS = test system: SF-295 CNS
UO-31 renal = test system: UO-31 renal
CCRF-CEM leukemia = test system: CCRF-CEM leukemia
HOP-18 NSCLC = test system: HOP-18 NSCLC
MALME-3M melanoma = test system: MALME-3M melanoma
OVCAR-8 ovarian = test system: OVCAR-8 ovarian
KM20L2 colon = test system: KM20L2 colon
KM12 colon = test system: KM12 colon
HL-60(TB) leukemia = test system: HL-60(TB) leukemia
SF-268 CNS = test system: SF-268 CNS
SN12C renal = test system: SN12C renal
TK-10 renal = test system: TK-10 renal
K-562 leukemia = test system: K-562 leukemia
SW-620 colon = test system: SW-620 colon
U251 CNS = test system: U251 CNS
UACC-62 melanoma = test system: UACC-62 melanoma
EKVX NSCLC = test system: EKVX NSCLC
SF-539 CNS = test system: SF-539 CNS
IGROV1 ovarian = test system: IGROV1 ovarian
DMS 273 small cell lung = test system: DMS 273 small cell lung
SNB-19 CNS = test system: SNB-19 CNS
UACC-257 melanoma = test system: UACC-257 melanoma
MOLT-4 leukemia = test system: MOLT-4 leukemia
HT29 colon = test system: HT29 colon
M19-MEL melanoma = test system: M19-MEL melanoma
OVCAR-3 ovarian = test system: OVCAR-3 ovarian
LXFL 529 NSCLC = test system: LXFL 529 NSCLC
ACHN renal = test system: ACHN renal
HCC-2998 colon = test system: HCC-2998 colon
DMS 114 small cell lung = test system: DMS 114 small cell lung
LOX IMVI melanoma = test system: LOX IMVI melanoma
NCI-H23 lung = test system: NCI-H23 lung
RPMI-8226 leukemia = test system: RPMI-8226 leukemia
NCI-H460 lung = test system: NCI-H460 lung
M14 melanoma = test system: M14 melanoma
XF 498 CNS = test system: XF 498 CNS
CAKI-1 renal = test system: CAKI-1 renal
HOP-62 NSCLC = test system: HOP-62 NSCLC
RXF 393 renal = test system: RXF 393 renal
SR leukemia = test system: SR leukemia
SNB-75 CNS = test system: SNB-75 CNS
SNB-78 CNS = test system: SNB-78 CNS
SK-MEL-28 melanoma = test system: SK-MEL-28 melanoma
SK-MEL-5 melanoma = test system: SK-MEL-5 melanoma

Structure (SMILES): O=C(CCC(=O)Nc1ccc(Cl)c(Cl)c1)CC(=O)c1ccc(Cl)cc1
- TGI (SK-MEL-2 melanoma): > 100 µM
- TGI (OVCAR-4 ovarian): > 100 µM
- TGI (NCI-H226 lung): > 100 µM
- TGI (COLO 205 colon): > 100 µM
- TGI (A549 NSCLC): > 100 µM
- TGI (SK-OV-3 ovarian): > 100 µM
- TGI (DLD-1 colon): > 100 µM
- TGI (HOP-92 NSCLC): > 100 µM
- TGI (A498 renal): > 100 µM
- TGI (HCT-15 colon): > 100 µM
- TGI (NCI-H522 lung): > 100 µM
- TGI (HCT-116 colon): > 100 µM
- TGI (786-0 renal): > 100 µM
- TGI (OVCAR-5 ovarian): > 100 µM
- TGI (SF-295 CNS): > 100 µM
- TGI (UO-31 renal): > 100 µM
- TGI (CCRF-CEM leukemia): > 100 µM
- TGI (HOP-18 NSCLC): > 100 µM
- TGI (MALME-3M melanoma): > 100 µM
- TGI (OVCAR-8 ovarian): > 100 µM
- TGI (KM20L2 colon): > 100 µM
- TGI (KM12 colon): > 100 µM
- TGI (HL-60(TB) leukemia): > 100 µM
- TGI (SF-268 CNS): > 100 µM
- TGI (SN12C renal): > 100 µM
- TGI (TK-10 renal): > 100 µM
- TGI (K-562 leukemia): > 100 µM
- TGI (SW-620 colon): > 100 µM
- TGI (U251 CNS): > 100 µM
- TGI (UACC-62 melanoma): > 100 µM
- TGI (EKVX NSCLC): > 100 µM
- TGI (SF-539 CNS): > 100 µM
- TGI (IGROV1 ovarian): > 100 µM
- TGI (DMS 273 small cell lung): > 100 µM
- TGI (SNB-19 CNS): > 100 µM
- TGI (UACC-257 melanoma): > 100 µM
- TGI (MOLT-4 leukemia): > 100 µM
- TGI (HT29 colon): > 100 µM
- TGI (M19-MEL melanoma): > 100 µM
- TGI (OVCAR-3 ovarian): > 100 µM
- TGI (LXFL 529 NSCLC): > 100 µM
- TGI (ACHN renal): > 100 µM
- TGI (HCC-2998 colon): > 100 µM
- TGI (DMS 114 small cell lung): > 100 µM
- TGI (LOX IMVI melanoma): > 100 µM
- TGI (NCI-H23 lung): > 100 µM
- TGI (RPMI-8226 leukemia): > 100 µM
- TGI (NCI-H460 lung): > 100 µM
- TGI (M14 melanoma): > 100 µM
- TGI (XF 498 CNS): > 100 µM
- TGI (CAKI-1 renal): > 100 µM

Structure (SMILES): FC(F)(F)c1cccc(C=NC23CC4CC(CC(C4)C2)C3)c1
- TGI (SK-MEL-2 melanoma): > 100 µM
- TGI (HOP-62 NSCLC): > 100 µM
- TGI (OVCAR-4 ovarian): > 100 µM
- TGI (NCI-H226 lung): > 100 µM
- TGI (COLO 205 colon): > 100 µM
- TGI (A549 NSCLC): > 100 µM
- TGI (SK-OV-3 ovarian): > 100 µM
- TGI (A498 renal): > 100 µM
- TGI (RXF 393 renal): > 100 µM
- TGI (HCT-15 colon): > 100 µM
- TGI (HCT-116 colon): > 100 µM
- TGI (786-0 renal): > 100 µM
- TGI (OVCAR-5 ovarian): > 100 µM
- TGI (SF-295 CNS): > 100 µM
- TGI (UO-31 renal): > 100 µM
- TGI (SR leukemia): > 100 µM
- TGI (MALME-3M melanoma): > 100 µM
- TGI (OVCAR-8 ovarian): > 100 µM
- TGI (KM20L2 colon): > 100 µM
- TGI (KM12 colon): > 100 µM
- TGI (HL-60(TB) leukemia): > 100 µM
- TGI (SF-268 CNS): > 100 µM
- TGI (SN12C renal): > 100 µM
- TGI (TK-10 renal): > 100 µM
- TGI (K-562 leukemia): > 100 µM
- TGI (SNB-75 CNS): > 100 µM
- TGI (SW-620 colon): > 100 µM
- TGI (U251 CNS): > 100 µM
- TGI (EKVX NSCLC): > 100 µM
- TGI (SF-539 CNS): > 100 µM
- TGI (SNB-78 CNS): > 100 µM
- TGI (IGROV1 ovarian): > 100 µM
- TGI (DMS 273 small cell lung): > 100 µM
- TGI (SNB-19 CNS): > 100 µM
- TGI (UACC-257 melanoma): > 100 µM
- TGI (MOLT-4 leukemia): > 100 µM
- TGI (HT29 colon): > 100 µM
- TGI (M19-MEL melanoma): > 100 µM
- TGI (OVCAR-3 ovarian): > 100 µM
- TGI (ACHN renal): > 100 µM
- TGI (HCC-2998 colon): > 100 µM
- TGI (SK-MEL-28 melanoma): > 100 µM
- TGI (DMS 114 small cell lung): > 100 µM
- TGI (LOX IMVI melanoma): > 100 µM
- TGI (NCI-H23 lung): > 100 µM
- TGI (RPMI-8226 leukemia): > 100 µM
- TGI (NCI-H460 lung): > 100 µM
- TGI (M14 melanoma): > 100 µM
- TGI (SK-MEL-5 melanoma): > 100 µM
- TGI (XF 498 CNS): > 100 µM
- TGI (CAKI-1 renal): > 100 µM

Structure (SMILES): COc1ccc(Cc2nccc3cc(OC)c(OC)cc23)cc1
- TGI (SK-MEL-2 melanoma): > 100 µM
- TGI (HOP-62 NSCLC): > 100 µM
- TGI (OVCAR-4 ovarian): > 100 µM
- TGI (COLO 205 colon): > 100 µM
- TGI (A549 NSCLC): > 100 µM
- TGI (SK-OV-3 ovarian): > 100 µM
- TGI (DLD-1 colon): > 100 µM
- TGI (A498 renal): > 100 µM
- TGI (HCT-15 colon): > 100 µM
- TGI (NCI-H522 lung): > 100 µM
- TGI (HCT-116 colon): > 100 µM
- TGI (786-0 renal): > 100 µM
- TGI (OVCAR-5 ovarian): > 100 µM
- TGI (SF-295 CNS): > 100 µM
- TGI (UO-31 renal): 90.8 µM
- TGI (CCRF-CEM leukemia): > 100 µM
- TGI (MALME-3M melanoma): > 100 µM
- TGI (OVCAR-8 ovarian): > 100 µM
- TGI (KM20L2 colon): > 100 µM
- TGI (KM12 colon): > 100 µM
- TGI (SF-268 CNS): > 100 µM
- TGI (SN12C renal): > 100 µM
- TGI (TK-10 renal): > 100 µM
- TGI (K-562 leukemia): > 100 µM
- TGI (SNB-75 CNS): > 100 µM
- TGI (SW-620 colon): > 100 µM
- TGI (U251 CNS): > 100 µM
- TGI (UACC-62 melanoma): > 100 µM
- TGI (EKVX NSCLC): > 100 µM
- TGI (SF-539 CNS): > 100 µM
- TGI (SNB-78 CNS): > 100 µM
- TGI (IGROV1 ovarian): > 100 µM
- TGI (SNB-19 CNS): > 100 µM
- TGI (UACC-257 melanoma): 62.2 µM
- TGI (MOLT-4 leukemia): > 100 µM
- TGI (HT29 colon): > 100 µM
- TGI (M19-MEL melanoma): > 100 µM
- TGI (OVCAR-3 ovarian): > 100 µM
- TGI (LXFL 529 NSCLC): > 100 µM
- TGI (ACHN renal): > 100 µM
- TGI (HCC-2998 colon): > 100 µM
- TGI (SK-MEL-28 melanoma): > 100 µM
- TGI (DMS 114 small cell lung): > 100 µM
- TGI (NCI-H23 lung): > 100 µM
- TGI (RPMI-8226 leukemia): > 100 µM
- TGI (NCI-H460 lung): > 100 µM
- TGI (M14 melanoma): > 100 µM
- TGI (SK-MEL-5 melanoma): > 100 µM
- TGI (XF 498 CNS): 83.6 µM
- TGI (CAKI-1 renal): > 100 µM
